US20080182835A1 (priority 2006, published 2008)

Tests used:
SV-infected BHK cells = test: Flow cytometry propidium iodide viability of Sindbis-infected BHK cells; format: cell-based, hamster
[1] = system: BHK cells infected with Sindbis virus; test: Cell viability of Sindbis-infected BHK cells, Trypan blue dye-exclusion and light microscopy; format: cell-based, hamster; conditions: for cell viability (viable cell count): 48 hour infection
Procedure: Additional cell viability studies were done using a combined assessment of cellular morphology via light microscopy, or visual inspection of cell viability, and plasma membrane integrity measurements using a Trypan blue dye-exclusion assay. Specifically, BHK cells were seeded to the wells of a 96-well plate (2×10^4 cells/well) and cultured overnight in complete growth medium. […] After a 48 hour infection period, the cells were resuspended and an aliquot of cells (10 μL) was mixed with 90 μL 0.2% trypan blue. The number of viable cells was determined by counting with a hemocytometer.
Also, a corresponding set of wells was identically prepared exclusively for observation using Trypan blue staining and light microscopy. FIGS. 6A-6H are light microscopy images showing cell morphology at various concentrations of Co(NH3)6 at 48 hours post infection following 6 hours of pretreatment with Co(NH3)6. […] Viable cells remain attached to the tissue culture substrate and have an elongated, epithelial cell-like appearance. The arrows in FIGS. 6E-6G indicate examples of cells that have retained an elongated and adherent morphology. Non-viable cells are detached from the tissue culture substrate and are rounded. FIGS. 6B-6H illustrate that pronounced cell death is apparent in the presence of no Co(NH3)6 (FIG. 6B) and at lower concentrations of Co(NH3)6 (FIGS. 6C and 6D).

Co(NH3)6
percentage of PI-positive (non-viable) cells (SV-infected BHK cells; at 0.15 mM, relative to untreated infected cells): significantly lower percentage | effect of timing of treatment on survivability of the cells (SV-infected BHK cells; pretreatment, co-infection, 2, 4 and 24 hours post-infection): very little effect | cell viability (viable cell count) ([1]; Sindbis-infected, 6 hours pretreatment, at 1.2 mM): 80% | cell viability (viable cell count) ([1]; Sindbis-infected, at 0.15 mM): further decreased viability | cell morphology, viable cells by light microscopy ([1]; Sindbis-infected, 48 hours post infection, at 0.6 and 1.2 mM): viable cells appeared more pronounced | concentration providing optimal protection against Sindbis virus ([1]; light microscopy and cell viability count): 1.2 mM
